Patent publication US11040035B2, “3-oxo-2,6-diphenyl-2,3-dihydropyridazine-4-carboxamides” (BAYER PHARMA AKTIENGESELLSCHAFT, priority 2016, dated 2021)

Biological target: T1, AHR (Homo sapiens, UniProt P35869)
T1 sequence (P35869 11-848): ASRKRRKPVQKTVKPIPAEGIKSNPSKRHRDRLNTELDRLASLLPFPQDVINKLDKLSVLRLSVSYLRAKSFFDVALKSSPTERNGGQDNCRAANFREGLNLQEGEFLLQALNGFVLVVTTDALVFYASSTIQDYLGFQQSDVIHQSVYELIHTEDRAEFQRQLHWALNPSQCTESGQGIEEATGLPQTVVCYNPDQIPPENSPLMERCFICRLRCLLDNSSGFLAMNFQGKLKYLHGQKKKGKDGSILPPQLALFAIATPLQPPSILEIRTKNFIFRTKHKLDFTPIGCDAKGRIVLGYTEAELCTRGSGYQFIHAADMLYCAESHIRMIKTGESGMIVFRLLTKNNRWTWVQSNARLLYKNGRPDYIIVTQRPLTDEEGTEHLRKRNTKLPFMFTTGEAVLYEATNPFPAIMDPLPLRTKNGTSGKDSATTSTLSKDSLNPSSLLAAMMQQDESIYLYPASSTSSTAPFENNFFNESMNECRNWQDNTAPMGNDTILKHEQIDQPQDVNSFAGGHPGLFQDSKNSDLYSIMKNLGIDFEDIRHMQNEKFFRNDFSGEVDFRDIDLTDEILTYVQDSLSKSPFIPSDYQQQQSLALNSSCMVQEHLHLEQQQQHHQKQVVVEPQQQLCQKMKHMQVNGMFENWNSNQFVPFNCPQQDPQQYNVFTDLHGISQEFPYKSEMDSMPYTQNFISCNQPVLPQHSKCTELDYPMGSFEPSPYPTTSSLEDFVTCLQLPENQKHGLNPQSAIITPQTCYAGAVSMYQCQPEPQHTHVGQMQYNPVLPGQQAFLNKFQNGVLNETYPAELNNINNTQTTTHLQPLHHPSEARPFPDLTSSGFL
Assay: In vitro assay 1: antagonism in human cell line (transactivation assay, kynurenic acid prestimulated)
Conditions: Assay 1: AHR-luc Hum Antagonism IC50 [M], 150 μM kynurenic acid, 20 hours, firefly luciferase

SMILES	IC50 [M]
Cc1ccc(-c2cc(C(=O)N[C@H](C)CO)c(=O)n(-c3cccc(F)c3)n2)cc1C [Example 90, 6-(3,4-dimethylphenyl)-2-(3-fluorophenyl)-N-[(2R)-1-hydroxypropan-2-yl]-3-oxo-2,3-dihydropyridazine-4-carboxamide]	6.75e-07
C[C@H](CO)NC(=O)c1cc(-c2ccc(Cl)cc2)nn(-c2ccccc2)c1=O [Example 81, 6-(4-chlorophenyl)-N-[(2R)-1-hydroxypropan-2-yl]-3-oxo-2-phenyl-2,3-dihydropyridazine-4-carboxamide]	1.12e-06
Cc1ccc(-c2cc(C(=O)NCCO)c(=O)n(-c3ccccc3)n2)cc1 [Example 74, N-(2-hydroxyethyl)-6-(4-methylphenyl)-3-oxo-2-phenyl-2,3-dihydropyridazine-4-carboxamide]	2.1e-06
CC(C)C[C@@H](CO)NC(=O)c1cc(-c2ccc(Cl)cc2)nn(-c2cccc(Cl)c2)c1=O [Example 61, 2-(3-Chlorophenyl)-6-(4-chlorophenyl)-N-[(2S)-1-hydroxy-4-methylpentan-2-yl]-3-oxo-2,3-dihydropyridazine-4-carboxamide]	5.14e-07
CC(NC(=O)c1cc(-c2ccc(C(F)(F)F)cc2)nn(-c2cccc(F)c2)c1=O)C(O)C(F)(F)F (single isomer, unassigned) [Example 268, Isomer no. 1 of 2-(3-fluorophenyl)-3-oxo-N-(4,4,4-trifluoro-3-hydroxybutan-2-yl)-6-[4-(trifluoromethyl)phenyl]-2,3-dihydropyridazine-4-carboxamide]	> 2e-05

These reach a lower IC50. Values come first.

IC50 [M]	SMILES
3.89e-07	CC(C)C(O)CNC(=O)c1cc(-c2ccc(Cl)cc2)nn(-c2cccc(Cl)c2)c1=O (stereo not shown) [Example 67, 2-(3-Chlorophenyl)-6-(4-chlorophenyl)-N-(2-hydroxy-3-methylbutyl)-3-oxo-2,3-dihydropyridazine-4-carboxamide]
4.05e-08	Cc1ccc(-c2cc(C(=O)N[C@H](CO)C(C)C)c(=O)n(-c3ccccc3)n2)cc1 [Example 71, N-[(2S)-1-hydroxy-3-methylbutan-2-yl]-6-(4-methylphenyl)-3-oxo-2-phenyl-2,3-dihydropyridazine-4-carboxamide]
8.61e-08	CCC(CO)NC(=O)c1cc(-c2ccc(C)c(C)c2)nn(-c2cccc(F)c2)c1=O (stereo not shown) [Example 85, 6-(3,4-dimethylphenyl)-2-(3-fluorophenyl)-N-(1-hydroxybutan-2-yl)-3-oxo-2,3-dihydropyridazine-4-carboxamide]
3.07e-07	Cc1ccc(-c2cc(C(=O)NC(C)CO)c(=O)n(-c3ccccc3)n2)cc1 (stereo not shown) [Example 73, N-(1-hydroxypropan-2-yl)-6-(4-methylphenyl)-3-oxo-2-phenyl-2,3-dihydropyridazine-4-carboxamide]
1.5e-07	O=C(NCC(O)C(F)(F)F)c1cc(-c2ccc(Cl)cc2)nn(-c2cccc(Cl)c2)c1=O (stereo not shown) [Example 62, 2-(3-Chlorophenyl)-6-(4-chlorophenyl)-3-oxo-N-(3,3,3-trifluoro-2-hydroxypropyl)-2,3-dihydropyridazine-4-carboxamide]
8.39e-08	CC(CO)NC(=O)c1cc(-c2ccc(Cl)cc2)nn(-c2cccc(F)c2)c1=O (stereo not shown) [Example 22, 6-(4-Chlorophenyl)-2-(3-fluorophenyl)-N-(1-hydroxypropan-2-yl)-3-oxo-2,3-dihydropyridazine-4-carboxamide]
1.46e-07	Cc1ccc(-c2cc(C(=O)NC(C)CO)c(=O)n(-c3cccc(F)c3)n2)cc1C (stereo not shown) [Example 88, 6-(3,4-dimethylphenyl)-2-(3-fluorophenyl)-N-(1-hydroxypropan-2-yl)-3-oxo-2,3-dihydropyridazine-4-carboxamide]
5.34e-08	O=C(NC(CO)C1CCCO1)c1cc(-c2ccc(Cl)cc2)nn(-c2cccc(F)c2)c1=O (single isomer, unassigned) [Example 318, 1,4-anhydro-5-({[6-(4-chlorophenyl)-2-(3-fluorophenyl)-3-oxo-2,3-dihydropyridazin-4-yl]carbonyl}amino)-2,3,5-trideoxyhexitol]
